Drawing on the NIST ThermoML archive (doi:10.1021/je050386z), this text covers mass density for 17 molecules.

In general, mass density refers to mass per unit of volume.

Numbers after ± are expanded uncertainties.

For this data set the following is noted: 101.33 kPa, Liquid.
Setting [1] is: 283.15 K, Vibrating tube method.
Setting [2] is: 298.15 K, Vibrating tube method.
[3] abbreviates: 323.15 K, Vibrating tube method.
[4] abbreviates: 348.15 K, Vibrating tube method.

For the molecule `CCCCCCCn1cc[n+](C)c1.O=S(=O)([O-])C(F)(F)C(F)F`, the mass density (301.15 K, Pycnometric method) came out at 1274 ± 4 kg/m3.
On to `CCCn1cc[n+](C)c1C.O=S(=O)([C-](S(=O)(=O)C(F)(F)F)S(=O)(=O)C(F)(F)F)C(F)(F)F`, for which the mass density by setting is: under setting [1], 1612 ± 3 kg/m3; under setting [2], 1597 ± 3 kg/m3; under setting [3], 1582 ± 3 kg/m3; under setting [4], 1567 ± 3 kg/m3.
Turning to `CCCCCCCCCCCCn1cc[n+](C)c1.O=S(=O)([O-])C(F)(F)C(F)F`, the mass density (301.35 K, Pycnometric method) turned out to be 1136 ± 4 kg/m3.
For the molecule `CCCCn1cc[n+](C)c1.COS(=O)(=O)[O-]` [1-butyl-3-methylimidazolium methyl sulfate], the mass density (298.15 K, Pycnometric method) is recorded as 1214 ± 3 kg/m3.
As to `CCCC[n+]1cccc(C)c1.O=S(=O)([N-]S(=O)(=O)C(F)(F)F)C(F)(F)F`, the mass density under setting [1] is given as 1428 ± 3 kg/m3, the mass density under setting [2] amounted to 1412 ± 3 kg/m3, the mass density under setting [3] worked out at 1389 ± 3 kg/m3 and the mass density under setting [4] is 1367 ± 3 kg/m3.
Taken in the same sequence, the figures for `CCn1cc[n+](C)c1.O=S(=O)([N-]S(=O)(=O)C(F)(F)F)C(F)(F)F` were 1534 ± 5 kg/m3, 1517 ± 5 kg/m3, 1492 ± 4 kg/m3 and 1467 ± 4 kg/m3.
As to `CCCCn1cc[n+](C)c1.O=S(=O)([O-])C(F)(F)C(F)F`, the mass density (301.45 K, Pycnometric method) was found to be 1324 ± 4 kg/m3.
As for `CCC[n+]1ccn(C)c1C.O=S(=O)([N-]S(=O)(=O)C(F)(F)F)C(F)(F)F`, the mass density (299.15 K, Pycnometric method) was found to be 1481 ± 3 kg/m3.
Consider `CCCCn1cc[n+](C)c1.O=S(=O)([O-])C(F)(F)C(F)(F)OC(F)C(F)(F)F` (centres undefined), for which the mass density is, setting by setting: under setting [1], 1464 ± 4 kg/m3; under setting [2], 1449 ± 4 kg/m3; under setting [3], 1425 ± 4 kg/m3; under setting [4], 1401 ± 4 kg/m3.
Consider `CC(=O)[O-].CCCCn1cc[n+](C)c1` [1-butyl-3-methylimidazolium acetate], for which the mass density (298.15 K, Pycnometric method) is listed as 1053 ± 3 kg/m3.
Regarding `CCn1cc[n+](C)c1.O=S(=O)([O-])C(F)(F)C(F)F`, the mass density (301.45 K, Pycnometric method) was 1502 ± 5 kg/m3.
`CCCCn1cc[n+](C)c1.O=S(=O)([O-])C(F)(F)C(F)OC(F)(F)C(F)(F)F` (centres undefined): the mass density is, setting by setting: under setting [1], 1439 ± 4 kg/m3; under setting [2], 1423 ± 4 kg/m3; under setting [3], 1397 ± 4 kg/m3; under setting [4], 1372 ± 4 kg/m3.
Taken in the same sequence, the figures for `CCCC[n+]1ccn(C)c1.O=S(=O)([O-])C(F)(F)C(F)C(F)(F)F` (centres undefined) were 1422 ± 4 kg/m3, 1409 ± 4 kg/m3, 1385 ± 4 kg/m3 and 1364 ± 4 kg/m3.
`CCn1cc[n+](C)c1.O=S(=O)([N-]S(=O)(=O)C(F)(F)C(F)(F)F)C(F)(F)C(F)(F)F`: the mass density is 1608 ± 3 kg/m3 under setting [1], 1590 ± 3 kg/m3 under setting [2], 1562 ± 3 kg/m3 under setting [3] and 1534 ± 3 kg/m3 under setting [4].
For the molecule `CCC[n+]1cccc(C)c1.O=S(=O)([N-]S(=O)(=O)C(F)(F)F)C(F)(F)F`, the mass density is, setting by setting: under setting [1], 1460 ± 3 kg/m3; under setting [2], 1444 ± 3 kg/m3; under setting [3], 1420 ± 3 kg/m3; under setting [4], 1397 ± 3 kg/m3.
Taken in the same sequence, the figures for `CCCCn1cc[n+](C)c1.O=S(=O)([O-])C(F)(F)C(F)OC(F)(F)F` (centres undefined) were 1409 ± 4 kg/m3, 1393 ± 4 kg/m3, 1369 ± 4 kg/m3 and 1345 ± 4 kg/m3.
Turning to `CCCCn1cc[n+](C)c1.N#C[S-]` [1-butyl-3-methylimidazolium thiocyanate], the mass density (298.65 K, Pycnometric method) was found to be 1067 ± 3 kg/m3.
